The test system of this assay is inhibitory dsRNA. As to the kind of experiment: K9 protein-RNA complex by electrophoresis of labeled inhibitory dsRNA and K9 protein. The format is binding. The settings on record: 4 M Urea, 10 mM Hepes, pH 8.15; 1.5% agarose gel; FIG. 5. Here is the method: Inhibitory dsRNA 3′-labeled with Dy547 is purchased from Dharmacon (Lafayette, Colo.). Labeled and unlabeled inhibitory dsRNA solutions are diluted to 4 μM in 4 M Urea, 10 mM Hepes, pH 8.15. […] Labeled and unlabeled protein solutions are diluted to 3 μM in 4M Urea.
Labeled and unlabeled RNA and protein are used in separate binding reactions. Samples are run on a 1.5% TAE-agarose gel for 35 minutes at 110 volts.
A typhoon phosphoimager(GE) is used to visualize the cy5-only, DY547-only and cy5/DY547 labeled RNA protein complexes. Filters are employed to separately detect Dy547 (FIG. 5A) and cy5 (FIG. 5B) fluorescent labels. To image all fluorescence on the gel, cy5-filtered and dy547-filtered images are overlayed (FIG. 5C).

For the substance “K9: modified HBV core protein (contains E77C), 9-lysine C-terminal tail, His tag, SEQ ID NO: 10 [Mutant K9]”, the “complex formation of K9 protein with inhibitory dsRNA (shifted band)” value is “form a complex in solution”.

These data come from patent US20110293727A1, “CHIMERIC THERAPEUTICS, COMPOSITIONS, AND METHODS FOR USING SAME” (priority 2008, published 2011).
